Assay results reported in ChEMBL document CHEMBL1201862, “PubChem BioAssay data set” (2004).
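Interpolation was linear, between the two tested concentrations surrounding the appropriate level; five concentrations were tested over 48 hours in 96-well plates. Abbreviation: GI50, concentration required for 50% inhibition of growth.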 The source made the active and inactive calls. No stated cut-off is given here; in the data, active = GI50 up to about 1.1 µM and inactive = higher.

Tests used:
Test in all cases: inhibition of tumour cell growth, NCI panel, 48 h
[1] = tested on: MDA-N
[2] = tested on: BT-549
[3] = tested on: NCI/ADR-RES
[4] = tested on: SF-539
[5] = tested on: MDA-MB-231
[6] = tested on: NCI-H23
[7] = tested on: PC-3
[8] = tested on: SN12C
[9] = tested on: SF-295
[10] = tested on: CAKI-1
[11] = tested on: OVCAR-5
[12] = tested on: A549
[13] = tested on: LOX IMVI
[14] = tested on: M14
[15] = tested on: SW-620
[16] = tested on: OVCAR-4
[17] = tested on: HOP-92
[18] = tested on: ACHN
[19] = tested on: OVCAR-3
[20] = tested on: HCC 2998
[21] = tested on: SNB-19
[22] = tested on: CCRF-CEM
[23] = tested on: UO-31
[24] = tested on: SR
[25] = tested on: RXF 393
[26] = tested on: NCI-H460
[27] = tested on: IGROV-1
[28] = tested on: SF-268
[29] = tested on: 786-0
[30] = tested on: UACC-62
[31] = tested on: HT-29
[32] = tested on: EKVX
[33] = tested on: DU-145
[34] = tested on: HCT-116
[35] = tested on: MDA-MB-435
[36] = tested on: NCI-H522
[37] = tested on: MOLT-4
[38] = tested on: SK-MEL-5
[39] = tested on: COLO 205
[40] = tested on: NCI-H226
[41] = tested on: HCT-15
[42] = tested on: A498
[43] = tested on: HL-60
[44] = tested on: K562
[45] = tested on: KM12
[46] = tested on: HOP-62
[47] = tested on: OVCAR-8
[48] = tested on: MCF7
[49] = tested on: SNB-75
[50] = tested on: SK-MEL-2
[51] = tested on: UACC-257
[52] = tested on: RPMI-8226
[53] = tested on: Hs-578T
[54] = tested on: T47D
[55] = tested on: TK-10
[56] = tested on: U-251

## Cc1cc2nc3ccccc3n2c2nc(N)ccc12
[1]
  GI50: 49.4 µM (inactive)
[2]
  GI50: 68.9 µM (inactive)
[3]
  GI50: 23.2 µM (inactive)
[4]
  GI50: 26.5 µM (inactive)
[5]
  GI50: 58.2 µM (inactive)
[6]
  GI50: 43 µM (inactive)
[7]
  GI50: 40.4 µM (inactive)
[8]
  GI50: 51.2 µM (inactive)
[9]
  GI50: 23.3 µM (inactive)
[10]
  GI50: 20.9 µM (inactive)
[11]
  GI50: 61.2 µM (inactive)
[12]
  GI50: 30.9 µM (inactive)
[13]
  GI50: 22.1 µM (inactive)
[14]
  GI50: 48 µM (inactive)
[15]
  GI50: 25.4 µM (inactive)
[16]
  GI50: 44.9 µM (inactive)
[17]
  GI50: 16.6 µM (inactive)
[18]
  GI50: 15.4 µM (inactive)
[19]
  GI50: 63.7 µM (inactive)
[20]
  GI50: 39.6 µM (inactive)
[21]
  GI50: 20.6 µM (inactive)
[22]
  GI50: 38.5 µM (inactive)
[23]
  GI50: 16.3 µM (inactive)
[24]
  GI50: 13.5 µM (inactive)
[25]
  GI50: 41.2 µM (inactive)
[26]
  GI50: 4.02 µM (inactive)
[27]
  GI50: 28.1 µM (inactive)
[28]
  GI50: 37.1 µM (inactive)
[29]
  GI50: 16.7 µM (inactive)
[30]
  GI50: 39.3 µM (inactive)
[31]
  GI50: 34.3 µM (inactive)
[32]
  GI50: 53 µM (inactive)
[33]
  GI50: 52.6 µM (inactive)
[34]
  GI50: 14.8 µM (inactive)
[35]
  GI50: 49.5 µM (inactive)
[36]
  GI50: 31.6 µM (inactive)
[37]
  GI50: 17.7 µM (inactive)
[38]
  GI50: 13.6 µM (inactive)
[39]
  GI50: 32.9 µM (inactive)
[40]
  GI50: 27.2 µM (inactive)
[41]
  GI50: 12 µM
[42]
  GI50: 46.1 µM (inactive)
[43]
  GI50: 17.6 µM (inactive)
[44]
  GI50: 54.1 µM (inactive)
[45]
  GI50: 33 µM (inactive)
[46]
  GI50: 26.3 µM (inactive)
[47]
  GI50: 15.8 µM (inactive)
[48]
  GI50: 44 µM (inactive)
[49]
  GI50: > 100 µM (inactive)
[50]
  GI50: 65.6 µM (inactive)
[51]
  GI50: > 100 µM (inactive)
[52]
  GI50: 14.8 µM (inactive)
[53]
  GI50: 35.3 µM (inactive)
[54]
  GI50: 38.2 µM (inactive)
[55]
  GI50: 55.8 µM (inactive)

## O=C(O)CCC(NC(=O)c1ccc(Nc2nc3ccc(C(F)(F)F)cc3nc2C(=O)O)cc1)C(=O)O (stereo not drawn)
[1]
  GI50: > 100 µM (inactive)
[2]
  GI50: > 100 µM (inactive)
[3]
  GI50: > 100 µM (inactive)
[4]
  GI50: > 100 µM (inactive)
[5]
  GI50: > 100 µM (inactive)
[6]
  GI50: > 100 µM (inactive)
[7]
  GI50: > 100 µM (inactive)
[8]
  GI50: > 100 µM (inactive)
[9]
  GI50: > 100 µM (inactive)
[11]
  GI50: > 100 µM (inactive)
[12]
  GI50: > 100 µM (inactive)
[13]
  GI50: > 100 µM (inactive)
[14]
  GI50: > 100 µM (inactive)
[15]
  GI50: > 100 µM (inactive)
[17]
  GI50: > 100 µM (inactive)
[18]
  GI50: > 100 µM (inactive)
[19]
  GI50: 69.8 µM (inactive)
[20]
  GI50: > 100 µM (inactive)
[21]
  GI50: > 100 µM (inactive)
[22]
  GI50: > 100 µM (inactive)
[23]
  GI50: > 100 µM (inactive)
[24]
  GI50: > 100 µM (inactive)
[25]
  GI50: > 100 µM (inactive)
[27]
  GI50: > 100 µM (inactive)
[28]
  GI50: > 100 µM (inactive)
[29]
  GI50: > 100 µM (inactive)
[30]
  GI50: > 100 µM (inactive)
[31]
  GI50: > 100 µM (inactive)
[32]
  GI50: > 100 µM (inactive)
[33]
  GI50: > 100 µM (inactive)
[34]
  GI50: > 100 µM (inactive)
[35]
  GI50: > 100 µM (inactive)
[36]
  GI50: > 100 µM (inactive)
[37]
  GI50: > 100 µM (inactive)
[38]
  GI50: > 100 µM (inactive)
[39]
  GI50: > 100 µM (inactive)
[40]
  GI50: > 100 µM (inactive)
[41]
  GI50: > 100 µM
[56]
  GI50: > 100 µM (inactive)
[42]
  GI50: > 100 µM (inactive)
[43]
  GI50: > 100 µM (inactive)
[44]
  GI50: > 100 µM (inactive)
[45]
  GI50: > 100 µM (inactive)
[46]
  GI50: > 100 µM (inactive)
[47]
  GI50: > 100 µM (inactive)
[48]
  GI50: > 100 µM (inactive)
[49]
  GI50: > 100 µM (inactive)
[50]
  GI50: > 100 µM (inactive)
[51]
  GI50: > 100 µM (inactive)
[52]
  GI50: > 100 µM (inactive)
[53]
  GI50: > 100 µM (inactive)
[54]
  GI50: > 100 µM (inactive)
[55]
  GI50: > 100 µM (inactive)
